System: chol-DH
Test: Variation of the redox mediators used, chol-DH activity by the HPLC method
Format: biochemical, Rhodococcus spec.
Parameters: reference not given here
Details: relative chol-DH activity with the mediator as artificial electron acceptor, 37° C., pH 7.0
Method: The enzyme sample was purified as described in example 2a) and subsequently its property of converting cholesterol was evaluated with the following methods.
An enzyme test was used to determine the chol-DH activity by quantifying the cholestenone formed in which the enzyme reaction proceeded for a defined time period before it was stopped by adding a protein-denaturing agent. Afterwards the amount of product was determined and expressed as μmol per minute and volume unit of the enzyme solution (=volume activity) or weight unit of the protein (=specific activity).
The cholestenone formed was quantified by HPLC analysis after stopping the chol-DH reaction:
One unit is the enzyme activity which oxidizes 1 μmol cholesterol per minute to cholestenone under the test conditions (37° C., pH 7.0). In this case the chol-DH activity is derived from the difference between the cholestenone concentrations of the test mixture and the blank (see above). [formula]
Apart from methyl-1,4-benzoquinone other redox mediators are suitable as electron acceptors for chol-DH. The chol-DH activity was determined by the HPLC method. Various redox mediators are listed in Table 1 that can serve as artificial electron acceptors for chol-DH.

SMILES	chol-DH [%]
O=C1C=CC(=O)C=C1 [p-benzoquinone]	109%
O=Nc1ccc(N(CCO)CCO)cc1 [N,N-bis-2(hydroxyethyl)p-nitrosoaniline]	45%
CN(C)c1ccc(N=O)cc1 [N,N-dimethy1-4-nitrosoaniline]	95%
O=C1C(Cl)=C(Cl)C(=O)C(Cl)=C1Cl [tetrachloro-p-benzoquinone]	27%
CC1=CC(=O)C=CC1=O [methyl-1,4-benzoquinone]	100%
O=C1C(Cl)=CC(=Nc2ccc(O)cc2)C=C1Cl [2,6-dichlorophenol-indophenol]	52%

From US5856156A, “Microbial cholesterol dehydrogenase, process for its production and use” (Boehringer Mannheim GmbH, priority 1994, dated 1999)
